Data: patent US9854804B2, “Antifungal composition comprising polycyclic peptide compound and method for preparing the same” (KOREAN RESEARCH INSTITUTE OF BIOSCIENCE AND BIOTECHNOLOGY, priority 2011, dated 2018)
≈ marks a conversion by molar mass, not a printed value. Like-named read-outs stand apart in the source and are kept apart here.

Legend:
[1] = tested on: Staphylococcus aureus RN 4220; test: Broth microdilution antibacterial activity (MIC); assay type: cell-based
Description: (§1) Test strains were maintained in MHB (Mueller Hinton broth), and antibacterial activity was measured using a broth microdilution method. After being incubated overnight, each of the test stains was diluted to a population of 2×100,000 cells/ml, and aliquoted in an amount of 100 μl per well into 96-well plates. Complestatin, neuroprotectin A and positive controls such as vancomycin, oxacillin and nofloxacin were treated at concentration with gradual dilution by 2-fold from maximum concentration of 128 μg/ml. Each compound was diluted in dimethylsulxoside (DMSO), and the concentration of DMSO was adjusted to approximately 1/100 before application. After incubation for 20 hrs, absorbance was read at 650 nm to examine the growth of bacterial cells.
(§2) The compounds of the present invention, complestatin and neuroprotectin A were examined for antibacterial activity against vacomycin-resistant bacteria in the same manner as in Example 4, and the results are given in Table 4, below.

MRSA CCARM 3167 = test: Broth microdilution antibacterial activity (MIC); assay type: cell-based, Methicillin-resistant Staphylococcus aureus; conditions: Staphylococcus aureus
Description: as §1

MRSA CCARM 3506 = test: Broth microdilution antibacterial activity (MIC); assay type: cell-based, Methicillin-resistant Staphylococcus aureus; conditions: Staphylococcus aureus
Description: as §1

QRSA CCARM 3505 = test: Broth microdilution antibacterial activity (MIC); assay type: cell-based, Quinolone-resistant Staphylococcus aureus; conditions: Staphylococcus aureus, CCARM3505
Description: as §1

QRSA CCARM 3519 = test: Broth microdilution antibacterial activity (MIC); assay type: cell-based, Quinolone-resistant Staphylococcus aureus; conditions: Staphylococcus aureus, CCARM3519
Description: as §1

[2] = tested on: Bacillus cereus KCTC 1661; test: Broth microdilution antibacterial activity (MIC); assay type: cell-based; conditions: KCTC1661
Description: as §1

[3] = tested on: Bacillus subtilis KCTC 1021; test: Broth microdilution antibacterial activity (MIC); assay type: cell-based; conditions: KCTC1021
Description: as §1

[4] = tested on: Entercoccus faecium KCTC 3511; test: Broth microdilution antibacterial activity (MIC); assay type: cell-based; conditions: Enterococcus faecium, KCTC3511
Description: as §1

[5] = tested on: Entercoccus faecium KCTC 5191; test: Broth microdilution antibacterial activity (MIC); assay type: cell-based; conditions: Enterococcus faecium, KCTC5191
Description: as §1

[6] = tested on: Staphylococcus aureus 209; test: Broth microdilution antibacterial activity (MIC); assay type: cell-based
Description: as §1

[7] = tested on: Staphylococcus epidermidis KCTC 3958; test: Broth microdilution antibacterial activity (MIC); assay type: cell-based; conditions: KCTC3958
Description: as §1

VRSA 48 = test: Antibacterial activity against vancomycin-resistant bacteria (MIC); assay type: cell-based, Vancomycin-resistant S. aureus; conditions: Staphylococcus aureus
Description: as §1, §2

VRE 11 = test: as above; assay type: cell-based; conditions: Enterococcus
Description: as §1, §2

VRE 3 = test: as above; assay type: cell-based; conditions: Enterococcus
Description: as §1, §2

VRE 7 = test: as above; assay type: cell-based; conditions: Enterococcus
Description: as §1, §2

[8] = tested on: Staphylococcus aureus, Bacillus subtilis, Bacillus cereus, Enterococcus faecium and Staphylococcus epidermis, MRSA, QRSA; test: Antibacterial activity, summary over the panel of Table 3; assay type: cell-based
Description: as §1

[9] = tested on: Vancomycin-resistant S. aureus (VRSA) and Vancomycin-resistant Enterococcus (VRE); test: Antibacterial activity, vancomycin-resistant bacteria of Table 4; assay type: cell-based
Description: as §1, §2

[10] = RN4220, Staphylococcus aureus RN 4220, Table 3, read-out: MIC
[11] = Bacillus cereus KCTC 1661, read-out: MIC
[12] = Bacillus subtilis KCTC 1021, read-out: MIC
[13] = Entercoccus faecium KCTC 3511, read-out: MIC
[14] = Entercoccus faecium KCTC 5191, read-out: MIC
[15] = Staphylococcus aureus 209, 20 hrs incubation, MHB, read-out: MIC
[16] = Staphylococcus epidermidis KCTC 3958, read-out: MIC
[17] = against VRSA and VRE (text summary of Table 4), read-out: MIC

Row | SMILES | MIC [1, 10] | MIC ([1]; S. aureus RN 4220, Table 4) | MIC (MRSA CCARM 3167; MRSA CCARM 3167, read-out: MIC) | MIC (MRSA CCARM 3506; MRSA CCARM 3506, read-out: MIC) | MIC (QRSA CCARM 3505; QRSA CCARM 3505, read-out: MIC) | MIC (QRSA CCARM 3519; QRSA CCARM 3519, read-out: MIC) | MIC [2, 11] | MIC [3, 12] | MIC [4, 13] | MIC [5, 14] | MIC [6, 15] | MIC [7, 16] | MIC (VRSA 48; VRSA 48, read-out: MIC) | MIC (VRE 11; VRE 11, read-out: MIC) | MIC (VRE 3; VRE 3, read-out: MIC) | MIC (VRE 7; VRE 7, read-out: MIC) | MIC [8] | MIC [9, 17] | other results
1 | CN1C(=O)C(c2cc(Cl)c(O)c(Cl)c2)NC(=O)C2NC(=O)C(c3cc(Cl)c(O)c(Cl)c3)NC(=O)C(NC(=O)C(=O)c3cc(Cl)c(O)c(Cl)c3)Cc3c[nH]c4cc(ccc34)-c3cc2cc(c3O)Oc2ccc(cc2)CC1C(=O)NC(C(=O)O)c1ccc(O)cc1 (centres unmarked) [Complestatin] | 1 µg/mL (≈ 0.753 µM) | 1 µg/mL (≈ 0.753 µM) | 1 µg/mL (≈ 0.753 µM) | 1 µg/mL (≈ 0.753 µM) | 1 µg/mL (≈ 0.753 µM) | 2 µg/mL (≈ 1.51 µM) | 0.5 µg/mL (≈ 0.376 µM) | 0.5 µg/mL (≈ 0.376 µM) | 2 µg/mL (≈ 1.51 µM) | 2 µg/mL (≈ 1.51 µM) | 2 µg/mL (≈ 1.51 µM) | 2 µg/mL (≈ 1.51 µM) | 1 µg/mL (≈ 0.753 µM) | 1 µg/mL (≈ 0.753 µM) | 1 µg/mL (≈ 0.753 µM) | 1 µg/mL (≈ 0.753 µM) | 0.5 to 2 µg/mL (≈ 0.376 to 1.51 µM) | 1 µg/mL (≈ 0.753 µM) | –
2 | CN1C(=O)C(c2cc(Cl)c(O)c(Cl)c2)NC(=O)C2NC(=O)C(c3cc(Cl)c(O)c(Cl)c3)NC(=O)C(NC(=O)C(=O)c3cc(Cl)c(O)c(Cl)c3)CC3C(=O)Nc4cc(ccc43)-c3cc2cc(c3O)Oc2ccc(cc2)CC1C(=O)NC(C(=O)O)c1ccc(O)cc1 (centres unmarked) [Neuroprotectin A] | 1 µg/mL (≈ 0.744 µM) | 1 µg/mL (≈ 0.744 µM) | 1 µg/mL (≈ 0.744 µM) | 1 µg/mL (≈ 0.744 µM) | 1 µg/mL (≈ 0.744 µM) | 2 µg/mL (≈ 1.49 µM) | 0.5 µg/mL (≈ 0.372 µM) | 0.5 µg/mL (≈ 0.372 µM) | 2 µg/mL (≈ 1.49 µM) | 2 µg/mL (≈ 1.49 µM) | 2 µg/mL (≈ 1.49 µM) | 2 µg/mL (≈ 1.49 µM) | 1 µg/mL (≈ 0.744 µM) | 1 µg/mL (≈ 0.744 µM) | 1 µg/mL (≈ 0.744 µM) | 1 µg/mL (≈ 0.744 µM) | 0.5 to 2 µg/mL (≈ 0.372 to 1.49 µM) | 1 µg/mL (≈ 0.744 µM) | –
3 | CCn1cc(C(=O)O)c(=O)c2cc(F)c(N3CCNCC3)cc21 [Norfloxacin] | 1 µg/mL (≈ 3.13 µM) | 1 µg/mL (≈ 3.13 µM) | 8 µg/mL (≈ 25.1 µM) | 1 µg/mL (≈ 3.13 µM) | 250 µg/mL (≈ 783 µM) | 125 µg/mL (≈ 391 µM) | 1 µg/mL (≈ 3.13 µM) | 0.25 µg/mL (≈ 0.783 µM) | 4 µg/mL (≈ 12.5 µM) | 4 µg/mL (≈ 12.5 µM) | 0.25 µg/mL (≈ 0.783 µM) | 0.5 µg/mL (≈ 1.57 µM) | 200 µg/mL (≈ 626 µM) | 200 µg/mL (≈ 626 µM) | 50 µg/mL (≈ 157 µM) | 50 µg/mL (≈ 157 µM) | – | – | –
4 | Cc1onc(-c2ccccc2)c1C(=O)N[C@@H]1C(=O)N2[C@@H]1SC(C)(C)[C@@H]2C(=O)O [Oxacillin] | 0.25 µg/mL (≈ 0.623 µM) | 0.25 µg/mL (≈ 0.623 µM) | 500 µg/mL (≈ 1250 µM) | 500 µg/mL (≈ 1250 µM) | 0.5 µg/mL (≈ 1.25 µM) | 0.5 µg/mL (≈ 1.25 µM) | 32 µg/mL (≈ 79.7 µM) | 0.25 µg/mL (≈ 0.623 µM) | 8 µg/mL (≈ 19.9 µM) | 4 µg/mL (≈ 9.96 µM) | 0.25 µg/mL (≈ 0.623 µM) | 0.25 µg/mL (≈ 0.623 µM) | > 200 µg/mL | > 200 µg/mL | > 200 µg/mL | > 200 µg/mL | – | > 200 µg/mL | –
5 | CN[C@H](CC(C)C)C(=O)N[C@H]1C(=O)N[C@@H](CC(N)=O)C(=O)N[C@H]2C(=O)N[C@H]3C(=O)N[C@H](C(=O)N[C@H](C(=O)O)c4cc(O)cc(O)c4-c4cc3ccc4O)[C@H](O)c3ccc(c(Cl)c3)Oc3cc2cc(c3O[C@@H]2O[C@H](CO)[C@@H](O)[C@H](O)[C@H]2O[C@H]2C[C@](C)(N)[C@H](O)[C@H](C)O2)Oc2ccc(cc2Cl)[C@H]1O [Vancomycin] | – | 1 µg/mL (≈ 0.69 µM) | – | – | – | – | – | – | – | – | – | – | – | – | – | – | – | – | MIC ([1]; Staphylococcus aureus, RN4220): 1 µg/mL (≈ 0.69 µM); MIC (MRSA CCARM 3167): 2 µg/mL (≈ 1.38 µM); MIC (MRSA CCARM 3506): 0.5 µg/mL (≈ 0.345 µM); MIC (QRSA CCARM 3505): 1 µg/mL (≈ 0.69 µM); MIC (QRSA CCARM 3519): 1 µg/mL (≈ 0.69 µM); MIC ([2]; Bacillus cereus): 1 µg/mL (≈ 0.69 µM); MIC ([3]; Bacillus subtilis): 0.125 µg/mL (≈ 0.0863 µM); MIC [4]: 2 µg/mL (≈ 1.38 µM); MIC [5]: 1 µg/mL (≈ 0.69 µM); MIC ([6]; Staphylococcus aureus, 209, 20 h): 0.5 µg/mL (≈ 0.345 µM); MIC ([7]; Staphylococcus epidermidis): 2 µg/mL (≈ 1.38 µM); MIC (VRSA 48; VRSA): > 200 µg/mL; MIC (VRE 11; VRE): > 200 µg/mL; MIC (VRE 3; VRE): > 200 µg/mL; MIC (VRE 7; VRE): > 200 µg/mL; MIC ([9]; VRE): > 200 µg/mL
